Reference: a melting point compilation (Tetko et al.; mined from patent text by program, amines drawn as free bases though some values may be those of a salt)

SMILES	melting point
O=C(c1ccc(I)cc1)c1ccc(-c2ccc(Cl)cc2)cc1	218 °C
CN1CCN(c2ccc(C(=O)C(C)(C)N3CCN(C)CC3)cc2)CC1	133 to 136 °C
Cc1nc2c(o1)-c1c(SC(C)C)sc(C(=O)O)c1CC2	277 to 278 °C
CC(C)C(=CCS(=O)(=O)c1ccccc1)C(C)C	50 °C
Brc1ccc(OC2CCOCC2)cc1	53 to 55 °C
CC(C)(C)c1cc(CCc2ccc(Cl)cc2NC(=O)NC2CCN(Cc3ccccc3)CC2)cc(C(C)(C)C)c1O	155 to 156 °C
CC(=O)O[C@@H]1[C@@H](OC(C)=O)[C@H](C)O[C@@H](OC[C@H]2O[C@H](Br)[C@H](OC(C)=O)[C@@H](OC(C)=O)[C@@H]2OC(C)=O)[C@@H]1OC(C)=O	120 to 125 °C
O=C(O)CCC/C=C\C[C@@H]1[C@H]2CC[C@H](C2)[C@H]1NC(=O)c1csc2ccc(O)cc12	141 to 142 °C
CC(=O)OCCN1CCN(C)c2cc(Nc3ncc(Cl)c(N[C@@H]4CCCC[C@H]4NS(C)(=O)=O)n3)ccc2C1	110 to 142 °C
C=CCON=C(CCC)C1=C(O)CC(c2ccc(C(=O)SCC)cc2)CC1=O (centres undefined)	72 to 75 °C
COc1ccc2c(n1)c(CCNC(C)=O)c1n2CCCC1	89 to 90 °C
COC(=O)CCCC#Cc1cc(Cl)ccc1NS(=O)(=O)c1ccc2nc(N)sc2c1	61 to 65 °C
CC(=O)NC(CCCCCCCCCCCCO)(COC(C)=O)COC(C)=O	75 to 76.5 °C
CCCCCCCCCCOc1ccc(C(O)C(O)c2ccc(C(=O)OC)cc2)nc1CCC(=O)OC (mixture of isomers)	88 to 92 °C
C[C@@H]1CCCN1CCCN1CCN(CCN2CCCCC2)C1=C(C#N)C#N	70 to 71 °C
O=C1NC(=O)C(=Cc2ccc(OCCc3ccccc3)cc2)S1	185 to 187 °C
CCCCCCCC(N)=NO	73 to 75 °C
C#CCCCn1ncc2c(OCC)c(C(=O)OCC)cnc21	84 to 85.5 °C
CCCCCCCCCCCCCCCCOc1ccc(OCC(=O)N(Cc2ccccn2)C(C)=O)cc1	58 to 59 °C
OC(CCc1ccc2ccccc2c1)Cn1ccnc1 (centres undefined)	122 to 124 °C
CCCCc1nc2c(C#N)ncc(C)c2[nH]1	197 to 198 °C
CC(=O)NCCC1CCCc2ccc(O)cc21 (centres undefined)	153 to 155 °C

SMILES	melting point
CCCc1cc(=O)oc2cc(O)cc(O)c12	227 to 229 °C
COc1cc2ccc(C(=O)C(C)C)cc2cc1OC	103 to 105 °C
CCOC(=O)C(Cc1cc(OC)ccc1OC)C(C)=O (centres undefined)	68 to 69 °C
COC(=O)CCCCc1ccc(O)c(CCC(=O)OC)n1	92 to 95 °C
COC(=O)C(C)(C)Oc1ccc(C(=O)c2cccs2)cc1	85 °C
COC(=O)c1cccc2c1OC1CC(N=[N+]=[N-])C(O)C21 (centres undefined)	150 to 152 °C
CN1C(=O)CCC1CN1C(=O)C2(COc3cc4c(cc32)CCO4)c2ccccc21 (centres undefined)	72 to 76 °C
CN(C)CCc1c[nH]c2ccc(C=CC(=O)NCc3ccc([N+](=O)[O-])cc3)cc12	177 to 187 °C
CCCN1NC(c2ccc(Cl)cc2)C2=C1C(=Cc1ccc(Cl)cc1)CSC2 (centres undefined)	192 to 194 °C
CCCCc1nn(Cc2ccccc2C(=O)OC)c(=O)n1Cc1ccc(-c2ccccc2-c2nnn[nH]2)cc1	79 to 80 °C
ClC(Cl)(Cl)c1nncs1	58 °C
O=C(Nc1ccc(OCc2ccncc2)c2ccccc12)c1cc(F)cc(N2CCOCC2)c1	157 to 159 °C
O=CN1c2ccccc2N(Cc2ccccc2)CC1CN1CCCC1 (centres undefined)	94 to 96 °C
O=C(O)Cc1nsc(NC(=O)c2ccccc2)n1	173 to 175 °C
O=C(NCCN1CCOCC1)N1c2ccccc2-c2noc3c2C1CCC3 (centres undefined)	176 to 178 °C
CCN1CCC(NC(=O)Nc2ccccc2CCc2cc(C(C)(C)C)c(O)c(C(C)(C)C)c2)CC1	182 to 184 °C
COc1ccccc1C(=O)C=CC(=O)O	146 to 148 °C
CC#Cc1ccc(NC(=O)C#Cc2ccc(CCN3CCCC3)cc2)cc1	198 to 199 °C
CC(C)(C)c1ccc(/C=N/OCCOc2ccc(C(=O)O)c(OC(=O)c3ccc(C(C)(C)C)cc3)c2)cc1	148 to 150 °C
O=C1c2ccccc2C(=O)N1CCCOc1ccc(OCc2ccccc2)cc1	141 to 143 °C
O=C(Nc1ccc(F)cc1)Nc1nc(Nc2ccc(Cl)cc2)sc1C(=O)c1ccc(Cl)cc1Cl	> 280 °C
CCCc1c(CC)[nH]c(C(=O)OCC)c1C	86 to 87 °C

SMILES	melting point
O=C1Cc2cc3c(cc2C(c2ccc([N+](=O)[O-])cc2Cl)=NN1)OCO3	202 to 204 °C
CC/C=C\C/C=C\C/C=C\CCCCCCCC(=O)Nc1c(OC)cc(OC)cc1OC	86 to 88 °C
CN(C)S(=O)(=O)Oc1c(Cl)cc(C(C)(C)C)cc1CNC(=O)OC(C)(C)C	122 to 123 °C
COC1=CC2=C(CN1OC)C1=C(c3cc4c(cc3C1=O)OCO4)C(CCCC(C)O)C2=O (centres undefined)	288 to 290 °C
COC(=O)c1ccc(N2CCOCC2)cc1	152 to 154 °C
c1ccc(OCCSCc2nnc(-c3ccc(OCCCN4CCCCC4)cc3)o2)cc1	65 °C
CS(=O)(=O)N1CCN(c2nc(N)nc(-c3cc(Cl)ccc3Cl)n2)CC1	184 to 186 °C
Cc1c(Cc2ccc(C(C)C)cc2)c2c(c(C)c1NC(=O)CC(C)(C)C)C(=O)C(C)(C)O2	193 to 194 °C
CC(C)(C)C(=O)NC1CCCNC(=O)C1 (centres undefined)	106 to 107 °C
O=C(O)C(CBr)N(C(=O)c1ccccc1)N1C(=O)CCC1=O (centres undefined)	174 to 177 °C
CC(F)C(C)(N)C(N)=O (centres undefined)	81 °C
CC(C)N1CCNC(=O)c2ccc(Nc3ncc(Cl)c(N[C@@H]4CCCC[C@H]4NS(C)(=O)=O)n3)cc21	189 to 191 °C
CC(C)SCS(=O)C(C)C (centres undefined)	39 to 40 °C
O=C(O)CCc1cc(Cl)cc2nc(-c3ccccc3Cl)oc12	152 to 154 °C
CN(C)C(=O)Oc1cccc(-c2cc(=O)c3cc(N(C)C)ccc3o2)c1	167 to 168 °C
CCCCCCCN(CCN1CCN(CCSc2nc3c(C)c(Cl)cc(C(C)C)c3o2)CC1)C(=O)Nc1c(C(C)C)cc(O)cc1C(C)C	138 to 140 °C
Cc1cc2c(cc1C)C(O)(c1ccccc1Cl)C(=O)N2 (centres undefined)	251 to 253 °C
CC(CNC(=O)Cc1ccccc1)NCC(O)c1ccccc1 (centres undefined)	96 to 98 °C
CCOC(=O)N1CC[C@@H](O)[C@H](c2ccccc2)C1 (relative stereo)	49.5 to 58 °C
COC(=O)CCSCCCCCCCCCCCCI	33 °C

Second part, the compound after the results:

melting point	SMILES
95 to 105 °C	CC(C)(COc1ccc(CNC(=O)C2Cc3ccccc3N2S(=O)(=O)c2ccc(-c3cccc(C(F)(F)F)c3)cc2)cc1)C(=O)O (centres undefined)
204 to 205 °C	CC(C)(CO)c1cc2c(cc1Cl)C=C(C(=O)O)C(C(F)(F)F)O2 (centres undefined)
95.9 to 96.7 °C	COC(=O)c1cc(-c2ccc(F)c(C)c2)nn(CC=Cc2ccccc2)c1=O
154 °C	O=C(O)c1ccn2c1CSC2c1cccnc1 (single isomer, unassigned; (+))
> 250 °C	O=c1[nH]c2ccc(C(F)(F)F)cc2c(-c2cc(Cl)ccc2O)c1CO
102 to 103 °C	COC(=O)c1cccc2c1cc1n2CCCC1
120 to 121 °C	CC(C)(C(=O)C(Oc1ccc(Cl)cc1Cl)n1cncn1)C(Cl)Cl (centres undefined)
102 to 103 °C	Oc1cc(COCc2ccccc2)ncn1
179 to 180 °C	CC(=O)COc1ccc(/C=C/C(=O)O)c(Oc2ncc(C(F)(F)F)cc2Cl)c1
176 to 178 °C	CC1(C)N=C(S)N=C(NC(=O)c2ccccc2)N1
59 °C	O=C(O)c1cnc(C(F)(F)F)nc1C(F)(F)F
204 to 205 °C	CC(C)N(c1cccc2cc(C(N)=S)[nH]c12)S(=O)(=O)c1cccs1
127 to 130 °C	CC(=O)c1cnn2c(-c3cccc(C(F)(F)F)c3)ccnc12
189 to 191 °C	O=C(O)c1ccc(Cl)c(NC(=O)C(CS)Cc2ccccc2)c1 (centres undefined)
144 to 146 °C	COc1ccc2cc(-c3ccc(OCC(O)CNC(C)C)c(OC)c3)n(C)c(=O)c2c1 (centres undefined)
188 °C	NS(=O)(=O)c1cccc(-c2cccc(-c3nc(-c4ccc(C(F)(F)F)c(OCC(F)(F)F)c4)cc(C(F)(F)F)n3)c2)c1
181 to 182 °C	CC(C)(C)C(NC(=O)c1ccc(-c2ccco2)cc1)NC(=NC#N)Nc1cccnc1 (centres undefined)
137 to 138 °C	CCOC(=O)c1c[nH]cc1-c1ccc(Cl)cc1

melting point	SMILES
140 °C	CNC(=O)c1ccccc1CC(O)(CCN(C)C)c1ccccc1 (centres undefined)
227 to 231 °C	CCOc1cc(OCC)cc(-c2c(Cl)ncn2-c2ccc(S(C)(=O)=O)cc2)c1
179 to 180 °C	COc1cc2cc(C(=O)OC(C)(C)C)c(N)cc2cc1OCc1ccccc1
115 °C	O=C(c1ccc(C(F)(F)F)cc1)N1CCC(Cc2ccc(C3=NCCO3)cc2)CC1
206 to 208 °C	N=C(Nc1cc(NC(=O)/C=C/c2ccccc2Cl)cc(C(F)(F)F)c1)c1cccs1
59.6 to 65 °C	Cc1cccc(-c2nc(C)cc(NC3CCCCC3)n2)n1
100 °C	COc1c(OCc2ccc3ccccc3c2)cccc1C(=O)c1nccs1
272 °C	CCOC(=O)c1cn(C)c2cnc3cc(F)c(F)cc3c2c1=O
188 to 189 °C	CC(=O)Nc1c(-c2ccccc2)nn2ccccc12
197 to 199 °C	CC(=O)c1cccc(N2C(=O)CCSC2=S)c1
233 to 234 °C	O=C(O)c1ccc(-c2nc(-c3cccc(OC(F)(F)F)c3)cs2)cc1
133 °C	Cc1ncc([N+](=O)[O-])cc1Nc1nccc(-c2ccccc2)n1
61 to 62 °C	CSc1cccc2c1Oc1ccccc1N2[Si](C)(C)C(C)(C)C
273 °C	O=C(O)c1ccccc1C(=O)c1ccc(O)c(-c2ccccc2)c1
166 to 167 °C	O=C(Nc1cc(C(F)(F)F)cc(C(F)(F)F)c1)[C@H]1CC=CC[C@H]1C(=O)O (relative stereo)
164 to 165 °C	Cc1ccc(-n2nccc2-c2nn(-c3cccc(C(F)(F)F)c3)ccc2=O)cc1
238 °C	Cn1nc(-c2cnc(N)nc2-c2ccc(Cl)c(Cl)c2)ccc1=O
